Laboratory results taken from patent publication US20070004660A1, “Synergistic Modulation of Flt3 Kinase Using Alkylquinolines and Alkylquinazolines” (priority 2005, published 2007).

biological target: T1, wild-type FLT3 receptor (Homo sapiens, UniProt P36888); test: Cell-based FLT3 receptor ELISA (FLT ligand-induced phosphorylation in Baf3 FLT3 cells); details: 100 ng/mL Flt ligand, uncertainty ±20%
T1 construct: host or cells: Baf3 (murine B cell lymphoma line), stably transfected
T1 sequence (P36888 27-993): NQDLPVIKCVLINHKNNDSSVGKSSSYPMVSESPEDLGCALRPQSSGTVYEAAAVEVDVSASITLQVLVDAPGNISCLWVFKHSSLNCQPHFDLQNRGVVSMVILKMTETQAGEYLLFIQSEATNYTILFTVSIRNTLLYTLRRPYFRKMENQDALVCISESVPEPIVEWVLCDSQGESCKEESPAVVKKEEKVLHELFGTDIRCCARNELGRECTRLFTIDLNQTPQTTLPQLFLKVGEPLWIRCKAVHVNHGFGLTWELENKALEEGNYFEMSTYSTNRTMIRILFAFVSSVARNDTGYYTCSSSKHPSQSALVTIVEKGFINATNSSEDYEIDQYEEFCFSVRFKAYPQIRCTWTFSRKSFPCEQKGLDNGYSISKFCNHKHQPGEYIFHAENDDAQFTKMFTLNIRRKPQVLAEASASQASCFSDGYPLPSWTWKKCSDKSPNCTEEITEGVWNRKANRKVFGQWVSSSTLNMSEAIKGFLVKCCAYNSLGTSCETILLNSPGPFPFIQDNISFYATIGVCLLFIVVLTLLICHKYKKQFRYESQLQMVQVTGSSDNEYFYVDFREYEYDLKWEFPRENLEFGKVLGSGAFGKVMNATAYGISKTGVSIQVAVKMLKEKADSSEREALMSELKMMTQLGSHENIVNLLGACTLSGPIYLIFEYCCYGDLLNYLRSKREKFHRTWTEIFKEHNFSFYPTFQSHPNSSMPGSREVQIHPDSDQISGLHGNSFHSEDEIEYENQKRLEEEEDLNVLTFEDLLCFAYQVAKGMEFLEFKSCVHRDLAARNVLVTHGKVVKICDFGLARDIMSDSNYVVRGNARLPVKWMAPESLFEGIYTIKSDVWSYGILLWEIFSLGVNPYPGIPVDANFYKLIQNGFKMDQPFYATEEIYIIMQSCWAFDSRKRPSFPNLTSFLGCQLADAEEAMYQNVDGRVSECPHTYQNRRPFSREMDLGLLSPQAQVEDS
Outline: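 Receptor phosphotyrosine measured by sandwich ELISA (anti-FLT3 capture, HRP anti-pTyr, luminescence) in FLT3-transfected murine Baf3 cells given 1 h compound pretreatment and 10 min 100 ng/mL FLT ligand after overnight low-serum starvation; triplicates, IC50 from nonlinear regression.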

SMILES | IC50
COc1cc2ncnc(C3CCN(C(=O)Nc4ccc(N5CCCC5=O)cc4)CC3)c2cc1OC [Example 57, 4-(6,7-Dimethoxy-quinazolin-4-yl)-piperidine-1-carboxylic acid [4-(2-oxo-pyrrolidin-1-yl)-phenyl]-amide] | 0.381 µM
CCN(CC)CC#Cc1ccc2ncnc(C3CCN(C(=O)Nc4ccc(OC(C)C)cc4)CC3)c2c1 [Example 13, 4-[6-(3-Diethylamino-prop-1-ynyl)-quinazolin-4-yl]-piperidine-1-carboxylic acid (4-isopropoxy-phenyl)-amide] | 0.027 µM
CC(C)Oc1ccc(NC(=O)N2CCC(c3ncnc4ccc(C#CCO)cc34)CC2)cc1 [Example 12, 4-[6-(3-Hydroxy-prop-1-ynyl)-quinazolin-4-yl]-piperidine-1-carboxylic acid (4-isopropoxy-phenyl)-amide] | 0.036 µM
CC(C)c1ccc(NC(=O)N2CCC(c3ncnc4ccccc34)CC2)cc1 [Example 7, 4-Quinazolin-4-yl-piperidine-1-carboxylic acid (4-isopropyl-phenyl)-amide] | 0.367 µM
CC(C)Oc1ccc(NC(=O)N2CCC(c3ncnc4ccc(I)cc34)CC2)cc1 [Example 11, 4-(6-Iodo-quinazolin-4-yl)-piperidine-1-carboxylic acid (4-isopropoxy-phenyl)-amide] | 1.4 µM
COCCCOc1ccc2c(C3CCN(C(=O)Nc4ccc(N5CCOCC5)cc4)CC3)ncnc2c1 [Example 78, 4-[7-(3-Methoxy-propoxy)-quinazolin-4-yl]-piperidine-1-carboxylic acid (4-morpholin-4-yl-phenyl)-amide] | 0.02 µM
CCCCc1ccc(NC(=O)N2CCC(c3ncnc4cc(OC)c(OC)cc34)CC2)cc1 [Example 43, 4-(6,7-Dimethoxy-quinazolin-4-yl)-piperidine-1-carboxylic acid (4-butyl-phenyl)-amide] | 0.059 µM
CN1CCN(CCCOc2ccc3c(C4CCN(C(=O)Nc5ccc(N6CCOCC6)nc5)CC4)ncnc3c2)CC1 [Example 80, 4-{7-[3-(4-Methyl-piperazin-1-yl)-propoxy]-quinazolin-4-yl}-piperidine-1-carboxylic acid (6-morpholin-4-yl-pyridin-3-yl)-amide] | 0.019 µM
COc1cc2ncnc(C3CCN(C(=O)Nc4ccc(OC5CCCC5)nc4)CC3)c2cc1OC [Example 69, 4-(6,7-Dimethoxy-quinazolin-4-yl)-piperidine-1-carboxylic acid (6-cyclopentyloxy-pyridin-3-yl)-amide] | 0.029 µM
CC(C)Oc1ccc(NC(=O)N2CCC(c3ncnc4ccc(OCCCN5CCN(C)CC5)cc34)CC2)cc1 [Example 76, 4-{6-[3-(4-Methyl-piperazin-1-yl)-propoxy]-quinazolin-4-yl}-piperidine-1-carboxylic acid (4-isopropoxy-phenyl)-amide] | 0.096 µM
COc1cc2ncnc(C3CCN(C(=O)Nc4ccc(OC(F)F)cc4)CC3)c2cc1OC [Example 51, 4-(6,7-Dimethoxy-quinazolin-4-yl)-piperidine-1-carboxylic acid (4-difluoromethoxy-phenyl)-amide] | 0.542 µM
CN1CCN(CCCOc2ccc3c(C4CCN(C(=O)Nc5ccc(N6CCOCC6)cc5)CC4)ncnc3c2)CC1 [Example 73, 4-{7-[3-(4-Methyl-piperazin-1-yl)-propoxy]-quinazolin-4-yl}-piperidine-1-carboxylic acid (4-morpholin-4-yl-phenyl)-amide] | 0.092 µM
O=C1CCCN1CCCOc1ccc2c(C3CCN(C(=O)Nc4ccc(N5CCOCC5)cc4)CC3)ncnc2c1 [Example 68, 4-{7-[3-(2-Oxo-pyrrolidin-1-yl)-propoxy]-quinazolin-4-yl}-piperidine-1-carboxylic acid (4-morpholin-4-yl-phenyl)-amide] | 0.029 µM

Other lines, results leading:

IC50 | SMILES
0.014 µM | CN1CCC(COc2ccc3c(C4CCN(C(=O)Nc5ccc(N6CCCC6)nc5)CC4)ncnc3c2)CC1 [Example 99, 4-[7-(1-Methyl-piperidin-4-ylmethoxy)-quinazolin-4-yl]-piperidine-1-carboxylic acid (6-pyrrolidin-1-yl-pyridin-3-yl)-amide]
0.063 µM | CN1CCN(CCCOc2ccc3c(C4CCN(C(=O)Nc5ccc(OC6CCCC6)nc5)CC4)ncnc3c2)CC1 [Example 82, 4-{7-[3-(4-Methyl-piperazin-1-yl)-propoxy]-quinazolin-4-yl}-piperidine-1-carboxylic acid (6-cyclopentyloxy-pyridin-3-yl)-amide]
0.01 µM | CS(=O)(=O)N1CCN(CCCOc2ccc3c(C4CCN(C(=O)Nc5ccc(N6CCOCC6)cc5)CC4)ncnc3c2)CC1 [Example 118, 4-{7-[3-(4-Methanesulfonyl-piperazin-1-yl)-propoxy]-quinazolin-4-yl}-piperidine-1-carboxylic acid (4-morpholin-4-yl-phenyl)-amide]
0.037 µM | O=C(Nc1ccc(N2CCOCC2)cc1)N1CCC(c2ncnc3cc(OCCCN4CCC[C@H]4CO)ccc23)CC1 [Example 119, (S)-4-{7-[3-(2-Hydroxymethyl-pyrrolidin-1-yl)-propoxy]-quinazolin-4-yl}-piperidine-1-carboxylic acid (4-morpholin-4-yl-phenyl)-amide]
0.079 µM | O=C(NCCCOc1ccc2c(C3CCN(C(=O)Nc4ccc(N5CCCC5)nc4)CC3)ncnc2c1)N1CCOCC1 [Example 112, Morpholine-4-carboxylic acid (3-{4-[1-(6-pyrrolidin-1-yl-pyridin-3-ylcarbamoyl)-piperidin-4-yl]-quinazolin-7-yloxy}-propyl)-amide]
0.023 µM | CS(=O)(=O)NCCCOc1ccc2c(C3CCN(C(=O)Nc4ccc(N5CCOCC5)nc4)CC3)ncnc2c1 [Example 87, 4-[7-(3-Methanesulfonylamino-propoxy)-quinazolin-4-yl]-piperidine-1-carboxylic acid (6-morpholin-4-yl-pyridin-3-yl)-amide]
0.001 µM | CC(C)Oc1ccc(NC(=O)N2CCC(c3ncnc4cc(OCC5CCN(C)CC5)ccc34)CC2)cc1 [Example 93, 4-[7-(1-Methyl-piperidin-4-ylmethoxy)-quinazolin-4-yl]-piperidine-1-carboxylic acid (4-isopropoxy-phenyl)-amide]
0.243 µM | O=C(Nc1ccc(N2CCOCC2)cc1)N1CCC(c2ncnc3cc(OCCN4CCOCC4)ccc23)CC1 [Example 96, 4-[7-(2-Morpholin-4-yl-ethoxy)-quinazolin-4-yl]-piperidine-1-carboxylic acid (4-morpholin-4-yl-phenyl)-amide]
0.036 µM | CC(=O)N1CCN(CCOc2ccc3c(C4CCN(C(=O)Nc5ccc(N6CCOCC6)cc5)CC4)ncnc3c2)CC1 [Example 97, 4-{7-[2-(4-Acetyl-piperazin-1-yl)-ethoxy]-quinazolin-4-yl}-piperidine-1-carboxylic acid (4-morpholin-4-yl-phenyl)-amide]
0.013 µM | CC(C)Oc1ccc(NC(=O)N2CCC(c3ncnc4cc(N5CCN(C)CC5)ccc34)CC2)cc1 [Example 103, 4-[7-(4-Methyl-piperazin-1-yl)-quinazolin-4-yl]-piperidine-1-carboxylic acid (4-isopropoxy-phenyl)-amide]
